Patent US9464326B2, “Total and phosphorylated IL-1 receptor-associated kinase-1 and IL-1 receptor-associated kinase-4 as a biomarker for cancer progression and chemotherapy resistance” (University of Maryland, Baltimore, priority 2012, dated 2016)

Assays:
[1] = tested on: Hut 102; test: Proliferation (3H-thymidine) of Hut 102; format: cell-based, human; details: 3H-thymidine uptake, 72 h
Description: CCRF-CEM, CEM/C1, CEM/C2, CEM-C7, Jurkat, Loucy, Molt-4, HSB-2, SUP-T1, Hut 78, HH, Hut 102, MO, and H9 T-leukemia and T-lymphoma cell lines were purchased from the American Type Culture Collection (Manassas, Va., USA). All of the cell lines were initially expanded and cryopreserved within one month of receipt. Cells were typically used for 6 months at which time a fresh vial of cryopreserved cells was used. Total T cells from healthy donors were isolated via negative selection followed by positive selection using a CD3+ selection kit (Invitrogen, Carlsbad, Calif.). T cells were isolated from patients with T-ALL bone marrow or peripheral blood samples containing more than 70% leukemia cells using a CD2+ isolation kit (STEMCELL Technologies, Vancouver, Canada). All tissues were collected under institutional IRB-approved protocols and all participants gave written informed assent/consent. For in vitro experiments, T-ALL cells were cultured in AIM-V medium supplemented with 20% human AB serum in the presence of recombinant human stem cell factor (50 ng/mL; Amgen, Thousand Oaks, Calif.), insulin (20 nM; Sigma-Aldrich, St Louis, Mo., USA) and IL-7 (50 ng/mL; R&D Systems, Minneapolis, Minn., USA). […]
Cells were cultured in a 96-well plate (Corning Costar, Corning, N.Y., USA) with various concentrations of TLR ligands 1-9, starting at 10 μg/ml, in a final volume of 200 ul. […] After this time point, cells were harvested with a Packard Filter-Mate-96 cell harvester (Perkin Elmer, Waltham, Mass., USA) and counted on Packard Top Count-NXT (Perkin Elmer, Waltham, Mass., USA). Results were expressed as average counts per minute (cpm). […] Forty-eight hours later, proliferation (±SD) was determined by ^3H-thymidine incorporation. Alternatively, apoptosis was measured by flow cytometry after staining cells with Annexin-V (BD Pharmingen, San Diego, Calif., USA) and propidium iodide (Sigma). Cell number was counted under microscopy by staining cells with trypan blue. […]

[2] = tested on: A375 cells; test: Western blot of IRAK phosphorylation in A375; format: cell-based, human; details: Pam3CysK4 2.5 μg/ml or flagellin 100 ng/ml, 48 hours, FIG. 22B
Protocol: FIG. 22. Effects of TLR stimulation and cytokines on IRAK phosphorylation in melanoma cells. (A) A375 cells were cultured in the presence of anti-IL-18, anti-CXCL-1, (R&D Systems), anti-IL-1 (BioLegend), or mouse IgG (Sigma-Aldrich) all at 10 μg/ml. Forty-eight hours later the levels of the indicated proteins were determined by western blot. (B) A375 cells, which express p-IRAK-1 and p-IRAK-4, and G361 melanoma cells, which express very low levels of p-IRAK-1 (and express TLR5) were cultured in the presence of TLR1-TLR2 agonist (Pam3CysK4; 2.5 μg/ml) or TLR5 (flagellin; 100 ng/ml; InVivogen). Forty-eight hours later total protein was collected and the levels of the indicated proteins were examined by western blot.
Total cell extracts were prepared from melanoma cells. […] Melanoma tissue arrays were purchased from US Biomax, Inc (Rockville, Md.). For immunohistochemical staining samples were stained with mouse monoclonal anti-human phosphor-IRAK.-4 antibody (Abnova; dilution, 3.5 μg/ml) or normal mouse serum. Tissue histology sections (5-μm-thick) were deparaffinized, hydrated, heated in boiling 10 mmol/L sodium citrate (pH 6.0), for antigen retrieval, for 30 min and washed in Tris buffer. Peroxide blocking was done with 3% […] in methanol at room temperature for 15 min, followed by 10% fetal bovine serum in TBS-t for 30 min at room temperature. Primary antibody incubation was done overnight at 4° C. Secondary antibody incubation with horse anti-mouse (1:200; Vector Laboratories, Burlingame, Calif.) was done for 1 hr, followed by application of diaminobenzidine chromogen for 5 min. The slides were then counterstained with hematoxylin and topped with a coverslip. IHC specimens were analyzed using “quick score” system in which the intensity of the immunohistochemical reaction was scored by multiplying the intensity 1 (weak), 2 (moderate), and 3 (strong) and the proportion of cells staining positively 0 (<10%), 1 (10-25%), 2 (26-50%), 3 (51-75%) or 4 (>75%).

[3] = tested on: CEM-C1; test: Proliferation (3H-thymidine) of CEM-C1; format: cell-based, human
Description: CCRF-CEM, CEM/C1, CEM/C2, CEM-C7, Jurkat, Loucy, Molt-4, HSB-2, SUP-T1, Hut 78, HH, Hut 102, MO, and H9 T-leukemia and T-lymphoma cell lines were purchased from the American Type Culture Collection (Manassas, Va., USA). All of the cell lines were initially expanded and cryopreserved within one month of receipt. Cells were typically used for 6 months at which time a fresh vial of cryopreserved cells was used. Total T cells from healthy donors were isolated via negative selection followed by positive selection using a CD3+ selection kit (Invitrogen, Carlsbad, Calif.). T cells were isolated from patients with T-ALL bone marrow or peripheral blood samples containing more than 70% leukemia cells using a CD2+ isolation kit (STEMCELL Technologies, Vancouver, Canada). All tissues were collected under institutional IRB-approved protocols and all participants gave written informed assent/consent. For in vitro experiments, T-ALL cells were cultured in AIM-V medium supplemented with 20% human AB serum in the presence of recombinant human stem cell factor (50 ng/mL; Amgen, Thousand Oaks, Calif.), insulin (20 nM; Sigma-Aldrich, St Louis, Mo., USA) and IL-7 (50 ng/mL; R&D Systems, Minneapolis, Minn., USA). In other experiments, protein lysate was collected using the Full Moon Biosystems (Sunnyvale, Calif., USA) buffer prior to protein examination by western blot or protein array.
Cells were cultured in a 96-well plate (Corning Costar, Corning, N.Y., USA) with various concentrations of TLR ligands 1-9, starting at 10 μg/ml, in a final volume of 200 ul. TLR ligands were diluted 2-fold. Cell lines (25-40×10^3/well) were cultured for 54 hours, whereas fresh patient-derived T-ALL cells (200×10^3/well) were cultured for 30 hours prior to adding [^3H]-thymidine for 18 hours. After this time point, cells were harvested with a Packard Filter-Mate-96 cell harvester (Perkin Elmer, Waltham, Mass., USA) and counted on Packard Top Count-NXT (Perkin Elmer, Waltham, Mass., USA). Results were expressed as average counts per minute (cpm). In some experiments CCRF-CEM cells were pre-treated with TLR1-TLR2 ligand (Pam3CysK4; 2.5 ug/ml) for 48 hrs, washed, and then cultured in the presence of varying concentrations of FBS. Forty-eight hours later, proliferation (±SD) was determined by ^3H-thymidine incorporation. Alternatively, apoptosis was measured by flow cytometry after staining cells with Annexin-V (BD Pharmingen, San Diego, Calif., USA) and propidium iodide (Sigma). Cell number was counted under microscopy by staining cells with trypan blue. […]

[4] = tested on: CCRF-CEM T-ALL cells; test: Antibody (protein) array of apoptosis-related proteins; details: IRAK-1,-4 inhibitor vs DMSO, 72 hours, normalised to GAPDH
Protocol: We also used a protein array from Full Moon Biosystems (Sunnyvale, Calif., USA). For these experiments, purified T-ALL cells were incubated for 48 hours in the presence of IRAK-1,-4 inhibitor (5 μM) or an equal volume of vehicle (DMSO). Then, total protein was extracted, and the levels of various proteins were measured according to the manufacturer's protocol.

tripalmitoyl-S-(bis(palmitoyloxy)propyl)-Cys-Ser-(Lys)3-Lys [Pam3Cysk4]
Proliferative effects of TLR ligands [1]: ∘
p-IRAK-1 or p-IRAK-4 expression levels [2]: remained unchanged
Proliferative effects of TLR ligands ([3]; 3H-thymidine uptake, 72 h): + (enhanced proliferation by 25% or greater)
TLR ligand concentration in parentheses below the symbol ([3]; no unit in table (μg/ml)): (2.5)

O=C(Nc1nc2ccccc2n1CCN1CCOCC1)c1cccc([N+](=O)[O-])c1 [IRAK-1,-4 inhibitor]
Fold Change: AFX(Ab-197) [4]: −2.62 fold
Fold Change: AFX(Phospho-Ser 97) [4]: −2.03 fold
Fold Change: BAD(Ab-112) [4]: −1.76 fold
Fold Change: BAD(Phospho-Ser112) [4]: −2.44 fold
Fold Change: BCL-XL(Phospho-Ser62) [4]: −2.42 fold
Fold Change: CDC2(Phospho-Tyr15) [4]: −2.33 fold
Fold Change: FKHR(Ab-319) [4]: −2.54 fold
Fold Change: FKHRL1(Ab-253) [4]: −2.36 fold
Fold Change: FKHRL1(Phospho-Ser253) [4]: −2.53 fold
Fold Change: GSK3 alpha(Phospho-Ser21) [4]: −2.13 fold
Fold Change: HSP27(Phospho-Ser15) [4]: −2.20 fold
Fold Change: IKB-alpha(Ab-32/36) [4]: −1.96 fold
Fold Change: IKB-alpha(Phospho-Ser32/Phospho-Ser36) [4]: −2.95 fold
Fold Change: IRS-1(Phospho-Ser639) [4]: −2.37 fold
Fold Change: JAK2(Phospho-Tyr221) [4]: −2.05 fold
Fold Change: NFKB-p65(Ab-435) [4]: −1.39 fold
Fold Change: NFKB-p65(Phospho-Thr435) [4]: −2.39 fold
Fold Change: NFKB-p100/p52(Phospho-Ser869) [4]: −2.50 fold
Fold Change: NFKB-p105/p50(Phospho-Ser337) [4]: −4.06 fold
Fold Change: PTEN(Phospho-Ser380) [4]: 1.35 fold
Fold Change: Raf1(Phospho-Ser338) [4]: −2.46 fold
Fold Change: STAT1(Phospho-Ser727) [4]: −2.17 fold
Fold Change: STAT3(Phospho-Ser727) [4]: −2.11 fold
Fold Change: p44/42 MAP Kinase(Phospho-Tyr204) [4]: −2.24 fold
Fold Change: p53(Ab-46) [4]: −1.39 fold
Fold Change: p53(Phospho-Ser46) [4]: −2.27 fold
